Laboratory results as given in US20160266093A1, “CELLS HAVING DISRUPTED EXPRESSION OF PROTEINS INVOLVED IN ADME AND TOXICOLOGY PROCESSES” (SIGMA-ALDRICH CO. LLC, priority 2010, published 2016).

How the values were obtained:
[1] = system: BCRP knockout C2BBe1 cells
Protocol: The wild-type BCRP gene was knocked out in C2BBe1 cells using zinc finger nuclease technology to generate a stable cell line. Cells were sorted and single cell cloned. Cells were analyzed for the desired mutations and positive clones were chosen for further expansion and analysis. Quantitative PCR was used to evaluate mRNA expression of the cell and compared to wild type cell. Whole cell lysates prepared from these clones were subjected to immunoblotting for analysis of BCRP protein expression level. […] A single BCRP knockout cell clone was selected for functional characterization of efflux activity using several known transporter-selective substrates (e.g. estrone 3-sulfate, digoxin and CDCFDA).
(§1) Both wild type cells (parental C2BBe1 cells) and BCRP knockout cells were seeded onto 24-well transwell plates and cultured for 21 days, following a standard protocol for intestinal efflux transporter assays previously developed using Caco-2 cells. The permeability of test compounds in both the apical to basal (A to B) and basal to apical (B to A) directions was measured following a two hour incubation and the efflux values calculated. […] Digoxin is a known MDR1 substrate, while CDCFDA is selective for the MRP2 transporter. Two additional compounds were used as controls, atenolol and metoprolol, which are known to not be substrates for either of these transporters.
(§2) The BCRP and MDR1 transporter genes were individually knocked out and an MDR1/BCRP double knockout was also generated in C2BBe1 cells using zinc finger nuclease technology. Cells were analyzed and expanded as described above and then tested for functional activity in the standard transwell assay. Two substrates were utilized—estrone 3-sulfate as a selective substrate for BCRP and digoxin as a selective substrate for MDR1. Metoprolol was used as a control.

[2] = system: parental C2BBe1 cells (wild type); details: Caco-2
Protocol: as §1, §2

[3] = system: MDR1/BCRP double knockout C2BBe1 cells
Protocol: as §1, §2

[4] = system: MDR1 knockout C2BBe1 cells
Protocol: as §1, §2

Structure (SMILES) | efflux ratio [1] | efflux ratio in the knockout cells compared to the parental cells [1] | efflux ratio [2] | efflux ratio [3] | efflux ratio [4]
C[C@H]1O[C@@H](O[C@H]2[C@@H](O)C[C@H](O[C@H]3[C@@H](O)C[C@H](O[C@H]4CC[C@@]5(C)[C@H](CC[C@@H]6[C@@H]5C[C@@H](O)[C@]5(C)[C@@H](C7=CC(=O)OC7)CC[C@]65O)C4)O[C@@H]3C)O[C@@H]2C)C[C@H](O)[C@@H]1O [digoxin] | high | unaffected | high | inhibited | inhibited
C[C@]12CC[C@@H]3c4ccc(OS(=O)(=O)O)cc4CC[C@H]3[C@@H]1CCC2=O [estrone 3-sulfate] | inhibited | greatly reduced | high | inhibited | high
